# PMC10641818, “Development of First-in-Class Dual Sirt2/HDAC6 Inhibitors as Molecular Tools for Dual Inhibition of Tubulin Deacetylation” (Journal of Medicinal Chemistry, 2023)
# How the values were obtained:
# [1] = biological target: T1, Sirt2 (Homo sapiens, UniProt Q8IXJ6); assay: Cell-based NanoBRET assay for Sirt2 target engagement in HEK293T cells; conditions: tracer SirReal-TAMRA 2 μM, read-out: Cellular Sirt2 target engagement IC50 (NanoBRET)
# T1 construct: expressed in transfected cells; host or cells: HEK293T
# T1 sequence (Q8IXJ6 1-389): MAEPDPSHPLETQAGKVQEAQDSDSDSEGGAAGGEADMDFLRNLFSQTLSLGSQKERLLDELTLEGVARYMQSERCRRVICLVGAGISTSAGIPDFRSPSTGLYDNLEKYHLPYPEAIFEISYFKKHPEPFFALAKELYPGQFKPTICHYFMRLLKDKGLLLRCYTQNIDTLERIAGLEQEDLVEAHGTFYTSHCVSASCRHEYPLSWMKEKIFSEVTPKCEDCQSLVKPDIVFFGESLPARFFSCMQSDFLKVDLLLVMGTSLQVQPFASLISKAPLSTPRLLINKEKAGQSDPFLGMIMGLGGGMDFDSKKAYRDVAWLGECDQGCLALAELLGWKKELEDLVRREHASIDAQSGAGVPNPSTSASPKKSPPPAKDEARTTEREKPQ
# [2] = tested on: MCF-7 breast cancer cells; assay: Cell viability assay (MTT) MCF-7; type: cell-based; conditions: Homo sapiens, MCF7, 72 h
# Method in brief: (§1)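 HGC27 and PC-3M-luc cells (2000/well) were read by MTS after compound in 0.5% DMSO. W1 (10^4/well) and MCF-7 (2 × 10^3/well) were given half-log dilutions for 72 h, then MTT for 1 h, with absorbance at 570 nm minus 690 nm. Viability was fitted to a four-parameter logistic curve.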
# [3] = biological target: T2, Sirt3 (Homo sapiens, UniProt Q9NTG7); assay: Sirt3 in vitro deacetylation assay (ZMAL); type: biochemical
# T2 construct: the respective sirtuin (Sirt1_134–747, Sirt2_56–356, or Sirt3_118–395) was mixed with; made in house; host or cells: Escherichia coli BL21 Star (DE3)
# T2 sequence (Q9NTG7 118-395): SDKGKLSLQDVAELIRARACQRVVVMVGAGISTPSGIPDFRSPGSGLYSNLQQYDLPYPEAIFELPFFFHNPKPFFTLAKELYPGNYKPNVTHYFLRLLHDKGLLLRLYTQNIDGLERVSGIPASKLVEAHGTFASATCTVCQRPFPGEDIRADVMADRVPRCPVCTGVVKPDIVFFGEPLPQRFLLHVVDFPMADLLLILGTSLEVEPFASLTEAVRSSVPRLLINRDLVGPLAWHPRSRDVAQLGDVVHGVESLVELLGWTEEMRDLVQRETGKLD
# [4] = biological target: T3, HDAC1 (Homo sapiens, UniProt Q13547); assay: HDAC1 in vitro deacetylation assay (ZMAL); type: biochemical
# T3 construct: purchased BPS Bioscience 50051
# [5] = tested on: α-tubulin acetylation; assay: Immunofluorescence microscopy of α-tubulin acetylation in PC-3M-luc cells; type: cell-based; conditions: 20 μM, 5 h
# Method: The detection of acetylation levels of α-tubulin by immunofluorescence was performed as previously described.[47] In brief, PC-3M-luc cells (25 000 cells per well) were plated in Ibidi 8-well slides (Ibidi, catalogue no. 80826) and incubated overnight at 37 °C, 5% CO2. Next, cells were treated with 20 μM of inhibitor. After 5 h, the medium was removed and the cells washed with PBS and fixed with 4% PFA for 8–10 min at ambient temperature. Cells were rinsed three times with PBS and lysed with extraction buffer (PBS, 0.1% Triton X-100) for 3–5 min at ambient temperature. After another washing step with PBS, blocking buffer (PBS, 0.1% Triton, 5% FCS) was added for at least 10 min before incubating with monoclonal acetylated α-tubulin antibody (1:500, Sigma-Aldrich, catalogue no. T6793) in blocking buffer overnight at 4 °C. […] The cells were rinsed two times with blocking buffer and once with PBS and DAPI in mounting medium ([…] HardSet Antifade Mounting Medium with DAPI, no. H-1500-10) diluted 1:50 in PBS was added and it was incubated for 10 min in the dark. Confocal microscopy was performed with a Leica SP8 confocal microscope equipped with a 40×/1.40 oil objective (Leica Microsystems) keeping the laser settings of the images constant to allow direct comparison of signal intensities between images.
# [6] = tested on: PC-3M-luc prostate cancer cells; assay: Cell viability assay (MTS) PC-3M-luc; type: cell-based; conditions: 72 h
# Method in brief: as §1
# [7] = biological target: T4, Sirt1 (Homo sapiens, UniProt Q96EB6); assay: Sirt1 in vitro deacetylation assay (ZMAL); type: biochemical
# T4 construct: the respective sirtuin (Sirt1_134–747, Sirt2_56–356, or Sirt3_118–395) was mixed with; made in house; host or cells: Escherichia coli BL21 Star (DE3)
# T4 sequence (Q96EB6 134-747): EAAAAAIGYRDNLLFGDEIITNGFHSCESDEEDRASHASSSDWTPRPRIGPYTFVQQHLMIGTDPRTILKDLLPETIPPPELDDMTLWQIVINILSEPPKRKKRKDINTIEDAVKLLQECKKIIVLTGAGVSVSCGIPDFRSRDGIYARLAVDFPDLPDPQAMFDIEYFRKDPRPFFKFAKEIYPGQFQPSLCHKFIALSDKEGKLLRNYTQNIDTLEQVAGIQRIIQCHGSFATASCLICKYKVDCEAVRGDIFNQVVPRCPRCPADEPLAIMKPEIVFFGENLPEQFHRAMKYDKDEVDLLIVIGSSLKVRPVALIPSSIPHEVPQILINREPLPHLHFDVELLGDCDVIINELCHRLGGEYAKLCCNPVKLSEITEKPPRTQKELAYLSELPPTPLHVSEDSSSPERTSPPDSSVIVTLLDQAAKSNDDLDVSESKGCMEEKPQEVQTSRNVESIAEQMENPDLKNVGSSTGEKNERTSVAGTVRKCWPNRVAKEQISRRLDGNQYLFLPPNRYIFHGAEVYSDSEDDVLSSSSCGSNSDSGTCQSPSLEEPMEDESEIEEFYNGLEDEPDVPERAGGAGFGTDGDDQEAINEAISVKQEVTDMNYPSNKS
# T3 sequence (Q13547 whole entry): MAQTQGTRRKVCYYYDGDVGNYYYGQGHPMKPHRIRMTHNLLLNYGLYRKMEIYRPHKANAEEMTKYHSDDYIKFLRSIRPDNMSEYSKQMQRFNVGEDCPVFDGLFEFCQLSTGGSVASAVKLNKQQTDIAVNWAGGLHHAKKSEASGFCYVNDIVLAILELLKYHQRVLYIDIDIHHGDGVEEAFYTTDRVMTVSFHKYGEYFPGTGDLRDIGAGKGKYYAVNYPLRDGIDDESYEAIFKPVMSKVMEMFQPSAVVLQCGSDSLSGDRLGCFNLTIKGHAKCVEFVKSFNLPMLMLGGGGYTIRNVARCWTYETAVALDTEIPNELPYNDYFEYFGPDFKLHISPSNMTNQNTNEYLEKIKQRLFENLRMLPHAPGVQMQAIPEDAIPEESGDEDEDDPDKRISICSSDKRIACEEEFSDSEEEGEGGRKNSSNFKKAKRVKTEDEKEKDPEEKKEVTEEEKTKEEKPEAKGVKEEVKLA
Structure (SMILES),IC50 [1],"EC50 ([2]; MTT, mean ± SD)",inhibition at 20 µM [3],"IC50 ([4]; deacetylation, mean ± SD)",α-tubulin acetylation (immunofluorescence) [5],"EC50 ([6]; PC-3M-luc, read-out: PC-3M-luc cell viability EC50, MTS, mean ± SD)",inhibition at 20 µM [7],"inhibition at 100 µM ([2]; @ 0.1 mM, read-out: MCF-7 percentual inhibition)","inhibition at 10 µM ([4]; @ 10 μM, read-out: HDAC1 percentual inhibition)",PC-3M-luc cellular effect ([6]; @ 50 μM)
"CCCCN(Cc1ccc(C(=O)NO)cc1)C(=O)CCCCn1cc(COc2cccc(Cc3cnc(NC(=O)CSc4nc(C)cc(C)n4)s3)c2)nn1 [Compound 33, 4-((N-Butyl-5-(4-((3-((2-(2-((4,6-dimethylpyrimidin-2-yl)thio)acetamido)thiazol-5-yl)methyl)phenoxy)methyl)-1H-1,2,3-triazol-1-yl)pentanamido)methyl)-N-hydroxybenzamide]",560 nM,21100 ± 6700 nM,< 15%,2200 ± 200 nM,the increase in tubulin hyperacetylation was especially pronounced,30100 ± 3800 nM,< 15%,,,
"Cc1cc(C)nc(SCC(=O)Nc2ncc(Cc3cccc(OCc4cn(Cc5ccccc5)nn4)c3)s2)n1 [Compound 4, SirReal1.1, reference compound]",200 nM,,< 15%,,very minor,,< 15%,3%,10%,ni ^b (ni = no inhibition (cellular effect <20% @ 50 μM))
